The subject of one data set is rat. The following applies: higher compound dose given for three months; cited from earlier work.
Another data set deals with Aβ in lumbar CSF. The following applies: cited from earlier work.
Data set [1] concerns Aβ40 in conditioned medium of cells stably expressing Amyloid Precursor Protein (APP). Nature of the data set: In vitro BACE cell-based assay (HEK cell assay, Aβ40 sandwich ELISA). The note with it: Homo sapiens, HEK293; average IC50; read-out: BACE1 cell assay IC50. In short, it runs like this: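 IC50 was derived from percent-of-control Aβ40 against concentration, with Aβ40 quantified by time-resolved fluorescence ELISA (pAb40/6E10-biotin, 4 °C incubations). Supernatants were sampled after 24 h of compound exposure (10 points, starting 100 or 10 μM, 0.1% DMSO) of cells stably expressing APP.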

Another data set addresses T1, human Bace2 protein (Homo sapiens, UniProt Q9Y5Z0).
T1 construct: V5 (C); 6-His (C)
T1 sequence (Q9Y5Z0 63-518): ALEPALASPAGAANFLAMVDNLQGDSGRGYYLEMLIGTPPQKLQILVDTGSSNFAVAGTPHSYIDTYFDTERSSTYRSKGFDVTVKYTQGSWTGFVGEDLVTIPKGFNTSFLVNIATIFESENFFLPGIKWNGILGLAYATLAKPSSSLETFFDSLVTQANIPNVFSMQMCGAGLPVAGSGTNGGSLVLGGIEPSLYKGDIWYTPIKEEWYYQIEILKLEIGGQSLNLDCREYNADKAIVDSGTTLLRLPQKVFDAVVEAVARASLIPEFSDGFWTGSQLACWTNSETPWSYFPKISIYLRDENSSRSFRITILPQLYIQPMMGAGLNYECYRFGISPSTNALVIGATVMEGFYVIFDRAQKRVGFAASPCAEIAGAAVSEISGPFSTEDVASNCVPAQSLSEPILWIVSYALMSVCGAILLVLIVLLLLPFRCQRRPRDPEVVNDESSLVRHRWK
Nature of the data set: In vitro enzymatic BACE2 FRET assay. The class given is biochemical. The following applies: average IC50; read-out: BACE2 Enzyme assay IC50. As to the method: In Vitro Enzymatic BACE2 FRET (Fluorescence Resonance Energy Transfer) Assay
Enzyme Assay Data in the Table 3
The assay buffer used in this screen is 0.05 M acetate, pH 4.2, 10% DMSO final, 100 uM genapol (which is a nonionic detergent, below its Critical Micelle Concentration). The Beta Secretase2 enzyme (human Bace2 protein with C-terminal V5 and 6-His tag; 0.2 nM) is pre-incubated for one hour with inhibitors, typically in about 1 uL of DMSO according to a serial dilution, are added thereto. This assay is effectively started by the addition of FRET substrate (50 nM) and the combination is incubated for one hour. Final assay concentration of about 0.64 nM. The FRET assay is terminated with by addition of Tris buffer, which raises the pH to neutrality, and the fluorescence is determined. The FRET substrate is a peptide with commercially available fluorophore and quencher, on opposite sides of the BACE cleavage site. Proteolytic cleavage of the FRET substrate releases quenching of fluorescence (excitation 488 nm and […]).

For another data set, the target named is T2, Cathepsin D (Cat D) (Homo sapiens, UniProt P07339).
T2 construct: made in house; host or cells: CHO cells
Briefly: In vitro enzymatic Cathepsin D (Cat D) FRET assay. The class given is biochemical. The note with it: average IC50; first procedure; read-out: CatD IC50. In outline:
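Fluorescence (500 nm excitation, 580 nm emission) was measured after Tris quench of a 1 h cleavage of 20 nM quenched peptide substrate. Before that, 9 nM CHO-expressed human Cat D sat with compound for 1 h at pH 3.5 (0.05 M citrate, 5 mM CHAPS, 10% DMSO final).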

The next data set concerns the target BACE1 (Homo sapiens, UniProt P56817). Nature of the data set: In vitro enzymatic BACE FRET assay. The class given is biochemical. The note with it: average IC50; read-out: BACE1 Enzyme assay IC50. In outline: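 Fluorescence (excitation 488 nm, […]) from cleavage of quenched peptide substrate (50 nM), reaction run 1 h after 1 h enzyme–inhibitor pre-incubation, then neutralised with Tris. Conditions: 0.2 nM enzyme, pH 4.2 acetate 0.05 M, 10% DMSO final, 100 uM genapol.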

This is an account of results in patent publication US9096615B2, “Bridged bicyclic amino thiazine dioxide compounds as inhibitors of beta-secretase and methods of use thereof” (AMGEN INC., priority 2013, dated 2015).

Chain of BACE1 (P56817 46-501, species assumed): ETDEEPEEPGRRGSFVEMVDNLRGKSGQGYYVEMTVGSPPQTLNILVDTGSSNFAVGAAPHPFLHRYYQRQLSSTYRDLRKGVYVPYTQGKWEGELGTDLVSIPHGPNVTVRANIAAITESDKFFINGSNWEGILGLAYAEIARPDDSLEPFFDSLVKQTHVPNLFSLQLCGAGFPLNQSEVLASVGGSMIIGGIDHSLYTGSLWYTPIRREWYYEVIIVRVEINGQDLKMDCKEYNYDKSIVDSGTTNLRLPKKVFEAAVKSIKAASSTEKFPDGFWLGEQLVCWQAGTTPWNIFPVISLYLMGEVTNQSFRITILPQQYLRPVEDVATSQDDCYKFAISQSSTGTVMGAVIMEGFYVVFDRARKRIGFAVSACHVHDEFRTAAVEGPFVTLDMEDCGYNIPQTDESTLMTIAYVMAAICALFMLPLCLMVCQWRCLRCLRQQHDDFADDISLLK
T2 sequence (P07339 65-412, species assumed): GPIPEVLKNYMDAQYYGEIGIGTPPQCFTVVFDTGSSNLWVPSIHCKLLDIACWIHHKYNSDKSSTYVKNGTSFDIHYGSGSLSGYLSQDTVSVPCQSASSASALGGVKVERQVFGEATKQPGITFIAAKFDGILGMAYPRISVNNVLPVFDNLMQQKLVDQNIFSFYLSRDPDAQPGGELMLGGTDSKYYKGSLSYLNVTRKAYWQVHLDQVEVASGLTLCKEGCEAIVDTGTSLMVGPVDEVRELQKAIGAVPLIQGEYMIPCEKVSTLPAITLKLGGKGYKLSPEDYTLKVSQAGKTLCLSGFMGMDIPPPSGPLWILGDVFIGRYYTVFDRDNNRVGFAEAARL

Turning to `C[C@@]1(c2cc(-c3cncnc3)c(F)cc2F)CCSC(N)=N1` [LY2811376, (S)-4-(2,4-difluoro-5-pyrimidin-5-yl-phenyl)-4-methyl-5,6-dihydro-4H-[1,3]thiazin-2-ylamine], the “rat toxicology finding in the eye” value in the data set with rat is on record as “damaged the pigment epithelium of the rat's eye”. Moreover, in the data set with Aβ in lumbar CSF (after oral dosing of 30 or 90 mg), the “Aβ reductions in lumbar CSF” value was “Prominent and long-lasting Aβ reductions”. The safety and tolerability entry in the data set with Aβ in lumbar CSF (healthy volunteers) is “safe and well tolerated”.

With `CC#CCOc1cnc2c(Nc3ccc(F)c([C@@]4(C)N=C(N)[C@@]5(C)CC[C@@H]4S5(=O)=O)c3)nccc2n1` [Example 62, N-(3-((1S,2R,5R)-4-amino-2,5-dimethyl-8,8-dioxido-8-thia-3-azabicyclo[3.2.1]oct-3-en-2-yl)-4-fluorophenyl)-2-(2-butyn-1-yloxy)pyrido[3,4-b]pyrazin-5-amine], the 50% inhibitory concentration (IC50) in data set [1] came out at 1 nM; on human Bace2 protein, 7 nM; at Cathepsin D (Cat D), 124000 nM; at BACE1, 1 nM.

As for `C[C@]1(c2cc(Nc3nccc4cc(Cl)cnc34)ccc2F)N=C(N)[C@@]2(CF)CC[C@@H]1S2(=O)=O` [Example 58, N-(3-((1S,2R,5R)-4-amino-5-(fluoromethyl)-2-methyl-8,8-dioxido-8-thia-3-azabicyclo[3.2.1]oct-3-en-2-yl)-4-fluorophenyl)-3-chloro-1,7-naphthyridin-8-amine], the 50% inhibitory concentration (IC50) in data set [1] amounted to 46 nM; on human Bace2 protein it was 2 nM; at Cathepsin D (Cat D) it was 342000 nM; on BACE1 it was 1 nM.

As to `C#C[C@H](C)Oc1cnc(C(=O)Nc2ccc(F)c([C@@]3(C)N=C(N)[C@@]4(CF)CC[C@@H]3S4(=O)=O)c2)cn1` [Example 45, N-(3-((1S,2R,5R)-4-amino-5-(fluoromethyl)-2-methyl-8,8-dioxido-8-thia-3-azabicyclo[3.2.1]oct-3-en-2-yl)-4-fluorophenyl)-5-(((1S)-1-methyl-2-propyn-1-yl)oxy)-2-pyrazinecarboxamide], the IC50 in data set [1] amounted to 3 nM; at human Bace2 protein, 19 nM; on Cathepsin D (Cat D), 596000 nM; at BACE1, 3 nM.

Turning to `C[C@]1(c2cc(Nc3nccc4cc(C#N)cnc34)ccc2F)N=C(N)[C@@]2(C)CC[C@@H]1S2(=O)=O` [Example 84, 8-((3-((1S,2R,5R)-4-amino-2,5-dimethyl-8,8-dioxido-8-thia-3-azabicyclo[3.2.1]oct-3-en-2-yl)-4-fluorophenyl)amino)-1,7-naphthyridine-3-carbonitrile], the IC50 in data set [1] was 3 nM; at human Bace2 protein, 2 nM; at Cathepsin D (Cat D) it was greater than 118000 nM; on BACE1, 2 nM.
